Values of other authors as cited in patent US4280953A, “Glycosylated analogs of somatostatin” (The Salk Institute for Biological Studies, priority 1979, dated 1981).
Non-standard residues stand in square brackets, D forms with d.

Test system: secretion of insulin, glucogon pancreatic polypeptide and gastrin
Settings: human subjects, subcutaneous administration

## H-CFF[dW]KTFC-OH (cysteine pairing not given here)
  inhibitory activity on the secretion of insulin, glucogon pancreatic polypeptide and gastrin: prolonged inhibitory activity
